Source: US20110263454A1, “Methods of Identifying Functional Characteristics of Promoters, Transcription Modifying Proteins and Transcription Modulating Agents” (Salk Institute for Biological Studies, priority 2008, published 2011)

Assays:
[1] = test system: hPPARg1 promoter; assay: NHR-promoter luciferase screen, hPPARg1 promoter; type: cell-based, human; settings: for Luc. act., normalized to lacZ / Normalized Luc. act., normalized to control: PPARG1 promoter, hormone receptor with or without its ligand; for Normalized Luc. act., normalized to control: relative to control; for Results of assays of transcription factor (+/- ligand) with hPPARg1: Table 6d, luciferase activity relative to control (control = 1.00)
Procedure: (§1) The use, feasibility, and reproducibility of the functional NHR-promoter screen in a 48-well format have been tested validated. Briefly, there were co-expressed 50 ng of each NHR/NHR homodimer or NHR/RXR heterodimer with 100 ng promoter/luciferase construct and 50 ng of LacZ (as a control for transfection efficiency) in CV-1 cells using Fugene HD (Roche) as a transfection reagent (alternatively or additionally, a CMV-YFP construct can be used as a transfection control). Each of the nuclear hormone receptors that were used in these experiments was cloned into a pcDNA3.1 vector and comprised a C-terminally linked V5H6 tag. Twenty-four hours after transfection, appropriate ligands were added, where applicable, (see Table 5 for various ligands and concentrations and after 48 hrs, samples were assayed for luciferase and LacZ activity. To measure for luciferase activity 15 ul of sample was added to 30 ul of luciferase buffer (20 mM tricine, 1.07 mM MgCarbonate, 2.67 mM MgSulfate, 0.1 mM Naz-EDTA, 5 mM DTT, 5 mM ATP, 0.15 mg/ml CoA, 0.5 mM Luciferin), mixed briefly, and run in a Perkin Elmer Victor 5 luminometer. Thus, the functional NHR-promoter screen was used to observe the transcriptional activity of 29 promoters from various physiological pathways including inflammation, lipid and sugar metabolism, cholesterol transport, xenobiotic metabolism, and circadian rhythm.
(§2) The promoters that facilitate transcription of the indicated gene products that were tested using the protocols described herein are listed in the first row of the table. The nuclear hormone receptors and, where applicable, ligands that were assayed for their transcriptional effects on the promoters are listed in the first column of the table. The data represent the luciferase activity of each sample normalized to both the lacZ activity of that sample and to a control, e.g., no NHR or ligand, as customary in the art. As described previously, these normalizations allow the transcriptional activity of each reporter cell to be compared to other samples.
(§3) Tables 7-40 show the transcriptional effects of the hormone receptors, and, where applicable, ligands (orphan receptors are screened without ligand), on each individual promoter. […] The control data of each table are shown in their last rows.

[2] = test system: mAgrp promoter; assay: NHR-promoter luciferase screen, mAgrp promoter; type: cell-based, mouse; settings: for Results of assays of transcription factor (+/- ligand) with mAgrp: Table 6d, luciferase activity relative to control (control = 1.00); for Luc. act., normalized to lacZ / Normalized Luc. act., normalized to control: mAgrp promoter, HR component with or without ligand; for Normalized Luc. act., normalized to control: relative to control; for luciferase/LacZ, mAgrp (selected results): mAgrp promoter-luciferase, NHR +/- ligand, control = 1.0
Procedure: as §1, §2, §3

[3] = test system: hCAR promoter; assay: NHR-promoter luciferase screen, hCAR promoter; type: cell-based, human; settings: for luciferase activity normalized to lacZ activity and to a control, hCAR: hCAR promoter-luciferase, CV-1 cells, NHR +/- ligand, control = 1.00; for Luc. act., normalized to lacZ / Normalized Luc. act., normalized to control: hCAR promoter, HR/ligand component
Procedure: as §1, §2, §3

[4] = test system: mUCP1 promoter; assay: NHR-promoter luciferase screen, mUCP1 promoter; type: cell-based, mouse; settings: for Luc. act., normalized to lacZ / Normalized Luc. act., normalized to control: mUCP1 promoter reporter, co-transfected HR, with or without its ligand; for Normalized Luc. act., normalized to control: relative to control; for luciferase activity normalized to lacZ activity and to a control, mUCP!: mUCP! promoter-luciferase, CV-1 cells, NHR +/- ligand, control = 1.00
Procedure: as §1, §2, §3

[5] = test system: mPer1 promoter; assay: NHR-promoter luciferase screen, mPer1 promoter; type: cell-based, mouse; settings: for Luc. act., normalized to lacZ / Normalized Luc. act., normalized to control: Per1 promoter reporter, co-transfected HR, with or without its ligand; for Normalized Luc. act., normalized to control: relative to control; for luciferase activity normalized to lacZ activity and to a control, mPer1: mPer1 promoter-luciferase, CV-1 cells, NHR +/- ligand, control = 1.00
Procedure: as §1, §2, §3

[6] = test system: hCYP3A4 promoter; assay: NHR-promoter luciferase screen, hCYP3A4 promoter; type: cell-based, human; settings: for Luc. act., normalized to lacZ / Normalized Luc. act., normalized to control: CYP3A4 promoter, HR/ligand component; for hCYP3A4 promoter reporter activity: transcription factor +/- ligand, control = 1.00
Procedure: Briefly, there were co-expressed 50 ng of each NHR/NHR homodimer or NHR/RXR heterodimer with 100 ng promoter/luciferase construct and 50 ng of LacZ (as a control for transfection efficiency) in CV-1 cells using Fugene HD (Roche) as a transfection reagent (alternatively or additionally, a CMV-YFP construct can be used as a transfection control). Each of the nuclear hormone receptors that were used in these experiments was cloned into a pcDNA3.1 vector and comprised a C-terminally linked V5H6 tag.
as §2, §3

Substance	Luc. act., normalized to lacZ [1]	Normalized Luc. act., normalized to control [1]	Results of assays of transcription factor (+/- ligand) with hPPARg1 [1]	Results of assays of transcription factor (+/- ligand) with mAgrp [2]	Luc. act., normalized to lacZ [2]	Normalized Luc. act., normalized to control [2]	luciferase activity normalized to lacZ activity and to a control, hCAR [3]	Luc. act., normalized to lacZ [3]	Normalized Luc. act., normalized to control [3]	Luc. act., normalized to lacZ [4]	Normalized Luc. act., normalized to control [4]	luciferase activity normalized to lacZ activity and to a control, mUCP! [4]	Luc. act., normalized to lacZ [5]	Normalized Luc. act., normalized to control [5]	luciferase activity normalized to lacZ activity and to a control, mPer1 [5]	Luc. act., normalized to lacZ [6]	Normalized Luc. act., normalized to control [6]	hCYP3A4 promoter reporter activity [6]	luciferase/LacZ, mAgrp (selected results) [2]
VDR: Vitamin D Receptor (NR1I1), cDNA driver	38.1	0.6	0.55	1.14	45.3	1.1	0.83	26.1	0.8	2.8	0.6	0.63	97.1	0.7	0.67	5.1	1.2	1.15	
PNR: Photoreceptor-specific Nuclear Receptor (NR2E3), cDNA driver	45.9	0.7	0.67	0.76	30.1	0.8	0.38	11.9	0.4	1.7	0.4	0.37	93.4	0.6	0.65	2.2	0.5	0.50	
GR: Glucocorticoid Receptor (NR3C1), cDNA driver	37.2	0.5	0.54	0.55	22.0	0.6	0.36	11.25	0.4	1.9	0.4	0.42	384.1	2.7	2.67	2.0	0.5	0.45	0.6
NR4a1: NR4a1 (NR4A1; NUR77), nuclear hormone receptor cDNA driver	129.6	1.9	1.88	1.17	46.3	1.2	0.97	30.7	1.0	7.6	1.7	1.70	503.5	3.5	3.50	6.2	1.4	1.40	1.2
ERR1: Estrogen Related Receptor α (NR3B1, ERRa), cDNA driver	59.1	0.9	0.86	1.15	45.5	1.1	0.82	25.8	0.8	3.9	0.9	0.88	197.1	1.4	1.37	4.5	1.0	1.01	
PPARg: Peroxisome proliferator activated receptor γ (NR1C3), cDNA driver	75.7	1.1	1.10	1.84	73.0	1.8	1.58	49.8	1.6	2.9	0.7	0.66	154.5	1.1	1.07	4.7	1.1	1.06	1.8
LXRa: Liver X Receptor α (NR1H3), cDNA driver	80.8	1.2	1.17	1.58	62.5	1.6	1.87	58.9	1.9	3.1	0.7	0.69	100.6	0.7	0.70	4.1	0.9	0.93	
RXRa: Retinoic X Receptor α (NR2B1), cDNA driver	45.6	0.7	0.66	1.17	46.4	1.2	0.78	24.7	0.8	2.9	0.7	0.66	75.8	0.5	0.53	1.5	0.3	0.35	
PPARa: Peroxisome proliferator activated receptor α (NR1C1), cDNA driver	57.6	0.8	0.84	1.06	42.1	1.1	1.39	43.9	1.4	2.6	0.6	0.59	180.7	1.3	1.25	3.4	0.8	0.76	
SF-1: Steroidogenic Factor 1 (NR5A1, SF1), cDNA driver	124.1	1.8	1.80	3.58	141.9	3.6	3.60	113.6	3.6	11.3	2.5	2.54	536.5	3.7	3.73	10.6	2.4	2.39	
